Data set [1] concerns Puccinia recondita. As to the kind of experiment: In vivo test on Puccinia recondita (brown rust). Particulars: 500 ppm of active ingredient; wheat plants sprayed 24 hours before contamination; grading 12 days after contamination vs control plants. The method, then: (§1) The active ingredients tested are prepared by homogenization in a mixture of acetone/tween/DMSO, and then diluted with water to obtain the desired active material concentration.
(§2) Wheat plants (“Scipion” variety), sown in starter cups on a 50/50 peat soil pozzolana substrate and grown at 22° C., are treated at the 1 leaf stage (10 cm height) by spraying with the active ingredient prepared as described above. Plants, used as controls, are treated with the mixture of acetone/tween/DMSO/water not containing the active material.
After 24 hours, the plants are contaminated by spraying the leaves with an aqueous suspension of Puccinia recondita spores (100 000 spores per mL). The spores are collected from an infected plant and are suspended in water containing 2.5 mL/L of Tween 80 at 10%. The contaminated wheat plants are incubated for 24 hours at 20° C. and at 100% relative humidity, and then for 10 days at 20° C. and at 70-80% relative humidity.
(§3) Grading (% of efficacy) is carried out 12 days after the contamination, in comparison with the control plants.
Under these conditions, good (at least 70%) to excellent (at least 90%) protection is observed at a dose of 500 ppm of active ingredient with the following compounds from table C: […]

In data set [2] the test system is Uromyces appendiculatus. Nature of the data set: In vivo preventive test on Uromyces appendiculatus (bean rust). Particulars: 500 ppm of active ingredient; bean plants sprayed 24 hours before contamination; grading 11 days after contamination vs control plants. The protocol: as §1
Bean plants (“Saxa” variety), sown in starter cups on a 50/50 peat soil pozzolana substrate and grown at 24° C., are treated at the 2 leaf stage (9 cm height) by spraying with the active ingredient prepared as described above. Plants, used as controls, are treated with the mixture of acetone/tween/DMSO/water not containing the active material.
After 24 hours, the plants are contaminated by spraying the leaves with an aqueous suspension of Uromyces appendiculatus spores (150 000 spores per mL). The spores are collected from infected plants and are suspended in water containing 2.5 mL/L of Tween 80 at 10%. The contaminated bean plants are incubated for 24 hours at 20° C. and at 100% relative humidity, and then for 10 days at 20° C. and at 70-80% relative humidity.
Grading (% of efficacy) is carried out 11 days after the contamination, in comparison with the control plants.
Under these conditions, good (at least 70%) to total protection is observed at a dose of 500 ppm of active ingredient with the following compounds from table G: […]

Data set [3] concerns Sphaerotheca fuliginea. Nature of the data set: In vivo test on Sphaerotheca fuliginea (cucurbits powdery mildew). Particulars: 500 ppm of active ingredient; gherkin plants sprayed 24 hours before contamination; grading 12 days after contamination vs control plants. The protocol: (§4) The active ingredients tested are prepared by homogenization in a mixture of acetone/tween/DMSO and then diluted with water to obtain the desired active material concentration.
Gherkin plants (“Vert petit de Paris” variety), sown in starter cups on a 50/50 peat soil-pozzolana substrate and grown at 24° C., are treated at the Z11 cotyledon stage by spraying with the active ingredient prepared as described above. Plants, used as controls, are treated with the mixture of acetone/tween/DMSO/water not containing the active material.
After 24 hours, the plants are contaminated by spraying the cotyledons with an aqueous suspension of Sphaerotheca fuliginea spores (100 000 spores per mL). The spores are collected from infected plants. The contaminated gherkin plants are incubated at about 20° C. and at 70-80% relative humidity.
as §3
Under these conditions, good (at least 70%) to total protection is observed at a dose of 500 ppm of active ingredient with the following compounds from table A: […]

Data set [4] deals with Septoria tritici. As to the kind of experiment: In vivo preventive test on Septoria tritici (wheat). Particulars: 500 ppm of active ingredient; wheat plants sprayed 24 hours before contamination; grading 24 days after contamination vs control plants. The protocol: as §1, §2
After 24 hours, the plants are contaminated by spraying the leaves with an aqueous suspension of cryopreserved Septoria tritici spores (500 000 spores per mL). The contaminated wheat plants are incubated for 72 hours at 18° C. and at 100% relative humidity, and then for 21 days at 90% relative humidity.
Grading (% of efficacy) is carried out 24 days after the contamination, in comparison with the control plants.
Under these conditions, good (at least 70%) to total protection is observed at a dose of 500 ppm of active ingredient with the following compounds from table F: […]

Data set [5] can be described thus: log P by HPLC on reversed-phase column (C 18), EEC Directive 79/831 Annex V.A8. Format: physicochemical. Particulars: Table 1, compounds of formula (I); HPLC C 18, 40° C., 0.1% aqueous formic acid and acetonitrile, gradient 10% to 90% acetonitrile. The method, then:
In table 1, the log P values were determined in accordance with EEC Directive 79/831 Annex V.A8 by HPLC (High Performance Liquid Chromatography) on a reversed-phase column (C 18), using the method described below:
Temperature: 40° C.; Mobile phases: 0.1% aqueous formic acid and acetonitrile; linear gradient from 10% acetonitrile to 90% acetonitrile.
Calibration was carried out using unbranched alkan-2-ones (comprising 3 to 16 carbon atoms) with known log P values (determination of the log P values by the retention times using linear interpolation between two successive alkanones). lambda-max-values were determined using UV-spectra from 200 nm to 400 nm and the peak values of the chromatographic signals.
In table 2, M+H (Apcl+) and log P are defined as for table 1.

For data set [6], the system named is Alternaria brassicae. As to the kind of experiment: In vivo preventive test on Alternaria brassicae (leaf spot on radish). Particulars: 500 ppm of active ingredient; radish plants sprayed 24 hours before contamination; grading 6 days after contamination vs control plants. The protocol:
as §1
Radish plants (“Pernod Clair” variety), sown in starter cups on a 50/50 peat soil pozzolana substrate and grown at 17° C., are treated at the cotyledon stage by spraying with the active ingredient prepared as described above. Plants, used as controls, are treated with the mixture of acetone/tween/DMSO/water not containing the active material.
After 24 hours, the plants are contaminated by spraying the cotyledons with an aqueous suspension of Alternaria brassicae spores (50 000 spores per mL). The spores are collected from a 15-day-old culture. The contaminated radish plants are incubated at 20° C. and at 100% relative humidity.
Grading (% of efficacy) is carried out 6 days after the contamination, in comparison with the control plants.
Under these conditions, good (at least 70%) to total protection is observed at a dose of 500 ppm of active ingredient with the following compounds from table D: […]

Data set [7] concerns Pyrenophora teres. Nature of the data set: In vivo test on Pyrenophora teres (barley net blotch). Particulars: 500 ppm of active ingredient; barley plants sprayed 24 hours before contamination; grading 14 days after contamination vs control plants. The protocol:
as §1
Barley plants (“Plaisant” variety), sown in starter cups on a 50/50 peat soil pozzolana substrate and grown at 22° C., are treated at the 1 leaf stage (10 cm height) by spraying with the active ingredient prepared as described above. Plants, used as controls, are treated with the mixture of acetone/tween/DMSO/water not containing the active material.
After 24 hours, the plants are contaminated by spraying the leaves with an aqueous suspension of Pyrenophora teres spores (12 000 spores per mL). The spores are collected from a 12-day-old culture. The contaminated barley plants are incubated for 48 hours at 20° C. and at 100% relative humidity, and then for 12 days at 20° C. at 70-80% relative humidity.
Grading (% of efficacy) is carried out 14 days after the contamination, in comparison with the control plants.
Under these conditions, good (at least 70%) to excellent (at least 90%) protection is observed at a dose of 500 ppm of active ingredient with the following compounds from table B: […]

For data set [8], the system named is Botrytis cinerea. Nature of the data set: In vivo preventive test on Botrytis cinerea (grey mould). Particulars: 500 ppm of active ingredient; gherkin plants sprayed 24 hours before contamination; grading 4 to 5 days after contamination vs control plants. The protocol:
as §4
Gherkin plants (“Vert petit de Paris” variety), sown in starter cups on a 50/50 peat soil pozzolana substrate and grown at 24° C., are treated at the Z11 cotyledon stage by spraying with the active ingredient prepared as described above. Plants, used as controls, are treated with the mixture of acetone/tween/DMSO/water not containing the active material.
After 24 hours, the plants are contaminated by spraying the cotyledons with an aqueous suspension of cryopreserved Botrytis cinerea spores (50 000 spores per mL). The spores are suspended in a nutrient solution composed of 10 g/L of PDB, 50 g/L of D-Fructose, 2 g/L of NH4NO3 and 1 g/L of KH2PO4. The contaminated gherkin plants are incubated at 17° C. and at 90% relative humidity.
Grading (% of efficacy) is carried out 4 to 5 days after the contamination, in comparison with the control plants.
Under these conditions, good (at least 70%) is observed at a dose of 500 ppm of active ingredient with the following compound from table E: […]

Drawing on patent US20150080337A1, “N-CYCLOALKYL-N-[(TRISUBSTITUTEDSILYLPHENYL)METHYLENE]-(THIO)CARBOXAMIDE DERIVATIVES” (BAYER CROPSCIENCE, priority 2012, published 2015), this text covers Efficacy, chromatographic logP and logP for nine compounds.

Broadly, the chromatographic logP is lipophilicity estimated from chromatographic retention. The low end stands for a more hydrophilic compound, the high end for a more lipophilic compound. A word on the logP: it is a log measure of how a compound divides between an organic and an aqueous phase.

Each structure is given as a SMILES string.

For `Cc1nn(C)c(F)c1C(=O)N(Cc1ccccc1[Si](C)(C)c1ccccc1)C1CC1` [I.1, N-cyclopropyl-N-{2-[dimethyl(phenyl)silyl]benzyl}-5-fluoro-1,3-dimethyl-1H-pyrazole-4-carboxamide], the Efficacy stood at 92% in data set [1], 93% in data set [2], 100% in data set [3] and 96% in data set [4]. In data set [5], this compound returned a chromatographic logP of 4.24.
With `Cn1cc(C(=O)N(Cc2ccccc2[Si](C)(C)c2ccccc2)C2CC2)c(C(F)F)n1` [I.3], the Efficacy in data set [1] came to 83%; in data set [2], 93%; in data set [3], 93%; in data set [4], 80%. In data set [5], this compound returned a logP of 4.41.
Turning to `Cn1nc(C(F)F)c(C(=O)N(Cc2ccccc2[Si](C)(C)c2ccccc2)C2CC2)c1F` [I.4], the Efficacy in data set [1] was 92%; in data set [2] it was 100%; in data set [3] it was 100%; in data set [4] it was 100%. This compound also gave a logP in data set [5] of 4.78.
For the compound `Cn1nc(C(F)F)c(C(=S)N(Cc2ccccc2[Si](C)(C)c2ccc(Cl)cc2)C2CC2)c1F` [I.8], the Efficacy in data set [6] is 88%; in data set [1], 88%; in data set [2], 97%; in data set [3], 100%; in data set [4], 97%. This compound also yielded a logP in data set [5] of 3.09.
Consider `Cn1nc(C(F)F)c(C(=O)N(Cc2ccccc2[Si](C)(C)c2ccc(Oc3ccccc3)cc2)C2CC2)c1F` [I.19], for which the Efficacy in data set [1] is recorded as 93%; in data set [2], 96%; in data set [3], 100%; in data set [7] it was 97%; in data set [4] it was 100%. In data set [5], the logP was determined as 5.68.
Take `Cn1cc(C(=O)N(Cc2ccccc2[Si](C)(C)c2ccc(Oc3ccccc3)cc2)C2CC2)c(C(F)F)n1` [I.20]: the Efficacy in data set [2] was 89%; in data set [3] it was 83%; in data set [7] it was 79%; in data set [4], 75%. In data set [5], this compound had a logP of 5.31.
For `Cn1nc(C(F)F)c(C(=O)N(Cc2ccccc2[Si](C)(C)c2cccc3ccccc23)C2CC2)c1F` [I.25], the Efficacy turned out to be 80% in data set [6], 86% in data set [2], 100% in data set [3] and 100% in data set [4]. For the same compound, the logP in data set [5] is on record as 5.19.
In data set [8], `C[Si](C)(c1ccccc1CN(C(=O)c1ccsc1I)C1CC1)c1cccc2ccccc12` [I.29] gave an Efficacy of 75%. For the same compound, the logP in data set [5] is listed as 5.84.
As for `Cn1cc(C(=O)N(Cc2ccccc2[Si](C)(C)c2cccs2)C2CC2)c(C(F)F)n1` [I.31], the Efficacy in data set [1] was found to be 75%; in data set [2], 96%; in data set [3], 100%; in data set [4] it was 96%. For the same compound, the logP in data set [5] worked out at 4.24.
